The structures appear in SMILES notation.

The target of this assay is human adenosine A2a receptor (Homo sapiens (Human), UniProt P29274). Kind of assay: A2a receptor binding affinity, [3H]-NECA radioligand binding test. Conditions: [3H]-NECA 37 nM; membrane from HEK-293 cells transfected with human adenosine A2a receptor. The gist of the method: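 Membranes from HEK-293 cells expressing human A2a receptor were incubated with [3H]-NECA (final 37 nM) and compound for 1 h at room temperature in 50 mM Tris, 10 mM MgCl2, 1 mM EDTA, pH 7.4. Bound ligand was filtered on PEI-coated plates and counted by scintillation to derive IC50 (μM).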
Chain of human adenosine A2a receptor (P29274 whole entry): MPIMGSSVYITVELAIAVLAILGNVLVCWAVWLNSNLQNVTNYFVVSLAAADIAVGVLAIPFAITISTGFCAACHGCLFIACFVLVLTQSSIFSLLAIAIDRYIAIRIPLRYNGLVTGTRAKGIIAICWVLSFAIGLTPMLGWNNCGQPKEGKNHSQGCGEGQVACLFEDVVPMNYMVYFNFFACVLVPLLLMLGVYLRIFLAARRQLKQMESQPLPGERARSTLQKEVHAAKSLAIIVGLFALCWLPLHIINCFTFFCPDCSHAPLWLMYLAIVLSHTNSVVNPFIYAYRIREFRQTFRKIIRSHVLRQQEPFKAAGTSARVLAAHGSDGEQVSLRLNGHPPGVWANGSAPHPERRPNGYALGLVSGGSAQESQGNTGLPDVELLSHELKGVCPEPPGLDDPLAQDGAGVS
With `CC(C)(F)CN1CCN(C(=O)[C@@H]2CCCN2c2cc3nc(-c4ccco4)nn3c(N)n2)CC1` [Example 352, (S)-(1-(5-amino-2-(furan-2-yl)-[1,2,4]triazolo[1,5-c]pyrimidin-7-yl)pyrrolidin-2-yl)(4-(2-fluoro-2-methylpropyl)piperazin-1-yl)methanone], the IC50 turned out to be 6 nM.
`Nc1nc(N2CCC[C@H]2C(=O)N2CCN(Cc3ccc(F)cc3F)CC2)nc2nc(-c3ccco3)nn12` [Example 16, (S)-(1-(7-amino-2-(furan-2-yl)-[1,2,4]triazolo[1,5-a][1,3,5]triazin-5-yl)pyrrolidin-2-yl)(4-(2,4-difluorobenzyl)piperazin-1-yl)methanone] yielded an IC50 of 1.95 nM.
The figure for `CC(C)(F)CN1CCN(C(=O)[C@@H]2CCCN2c2nc(N)n3nc(-c4ccco4)nc3n2)CC1` [Example 26, (S)-(1-(7-amino-2-(furan-2-yl)-[1,2,4]triazolo[1,5-a][1,3,5]triazin-5-yl)pyrrolidin-2-yl)(4-(2-fluoro-2-methylpropyl)piperazin-1-yl)methanone] is 4 nM; for `Nc1nc(N2CC[C@H]2C(=O)N2CCN(CC(F)F)CC2)nc2nc(-c3ccco3)nn12` [Example 252, (S)-(1-(7-amino-2-(furan-2-yl)-[1,2,4]triazolo[1,5-a][1,3,5]triazin-5-yl)azetidin-2-yl)(4-(2,2-difluoroethyl)piperazin-1-yl)methanone] it is 6 nM; for `CC(C)(O)CC(=O)N1CCN(C(=O)[C@@H]2CCCN2c2nc(N)c3nc(-c4ccco4)sc3n2)CC1` [Example 262, 1-(4-((7-amino-2-(furan-2-yl)thiazolo[5,4-d]pyrimidin-5-yl)-L-prolyl)piperazin-1-yl)-3-hydroxy-3-methylbutan-1-one] it is 5 nM.
Take `Nc1nc(N2CCC[C@H]2C(=O)N2CCN(CC(F)(F)C(F)(F)F)CC2)nc2nc(-c3ccco3)nn12` [Example 227, (S)-(1-(7-amino-2-(furan-2-yl)-[1,2,4]triazolo[1,5-a][1,3,5]triazin-5-yl)pyrrolidin-2-yl)(4-(2,2,3,3,3-pentafluoropropyl)piperazin-1-yl)methanone]: the IC50 turned out to be 9 nM.
With `Nc1nc(N[C@H](C(=O)N2CCN(c3ccc(F)cc3F)CC2)C2CC2)nc2nc(-c3ccco3)nn12` [Example 168, (S)-2-((7-amino-2-(furan-2-yl)-[1,2,4]triazolo[1,5-a][1,3,5]triazin-5-yl)amino)-2-cyclopropyl-1-(4-(2,4-difluorophenyl)piperazin-1-yl)ethan-1-one], the IC50 worked out at 4 nM.
In the case of `CCCCN1CCN(C(=O)[C@@H]2CCCN2c2nc(N)n3nc(-c4ccc(C)o4)nc3n2)CC1` [Example 189, (S)-(1-(7-amino-2-(5-methylfuran-2-yl)-[1,2,4]triazolo[1,5-a][1,3,5]triazin-5-yl)pyrrolidin-2-yl)(4-butylpiperazin-1-yl)methanone] it was 9 nM; in that of `CCCCCN1CCN(C(=O)[C@@H]2CCCN2c2nc(N)n3nc(-c4ccco4)nc3n2)CC1` [Example 138, (S)-(1-(7-amino-2-(furan-2-yl)-[1,2,4]triazolo[1,5-a][1,3,5]triazin-5-yl)pyrrolidin-2-yl)(4-pentylpiperazin-1-yl)methanone], 2 nM.
For the compound `Nc1nc(N[C@@H](Cc2ccccc2)C(=O)N2CCN(Cc3ccc(F)cc3F)CC2)nc2nc(-c3ccco3)nn12` [Example 13, (S)-2-((7-amino-2-(furan-2-yl)-[1,2,4]triazolo[1,5-a][1,3,5]triazin-5-yl)amino)-1-(4-(2,4-difluorobenzyl)piperazin-1-yl)-3-phenylpropan-1-one], the IC50 worked out at 0.1 nM.
Consider `Nc1nc(N2CCC[C@H]2C(=O)N2CCN(Cc3ccccc3)CC2)nc2nc(-c3nccs3)nn12` [Example 193, (S)-(1-(7-amino-2-(thiazol-2-yl)-[1,2,4]triazolo[1,5-a][1,3,5]triazin-5-yl)pyrrolidin-2-yl)(4-benzylpiperazin-1-yl)methanone], for which the IC50 stood at 10 nM.
On to `Nc1nc(N[C@@H](CN2CCOCC2)C(=O)N2CCN(c3ccc(F)cc3F)CC2)nc2nc(-c3ccco3)nn12` [Example 273], for which the IC50 came out at 20 nM.
The figure for `Nc1nc(N2CCC[C@H]2C(=O)N2CCN(CC(F)(F)F)CC23CC3)nc2nc(-c3ccco3)nn12` [Example 342, (S)-(1-(7-amino-2-(furan-2-yl)-[1,2,4]triazolo[1,5-a][1,3,5]triazin-5-yl)pyrrolidin-2-yl)(7-(2,2,2-trifluoroethyl)-4,7-diazaspiro[2.5]octan-4-yl)methanone] is 8 nM; for `CC(C)(F)CN1CCN(C(=O)[C@@H]2CCN2c2nc(N)n3nc(-c4ccco4)nc3n2)CC1` [Example 108, (S)-(1-(7-amino-2-(furan-2-yl)-[1,2,4]triazolo[1,5-a][1,3,5]triazin-5-yl)azetidin-2-yl)(4-(2-fluoro-2-methylpropyl)piperazin-1-yl)methanone] it is 9 nM.
In the case of `CC(F)(F)CN1CCC(C2CCN(C(=O)[C@@H]3CCN3c3nc(N)n4nc(-c5ccco5)nc4n3)CC2)CC1` [Example 324, (S)-(1-(7-amino-2-(furan-2-yl)-[1,2,4]triazolo[1,5-a][1,3,5]triazin-5-yl)azetidin-2-yl)(1′-(2,2-difluoropropyl)-[4,4′-bipiperidin]-1-yl)methanone] it was 5 nM; in that of `Nc1nc(N2CCCC[C@H]2C(=O)N2CCN(CC(F)(F)C(F)(F)F)CC2)nc2nc(-c3ccco3)nn12` [Example 280, (S)-(1-(7-amino-2-(furan-2-yl)-[1,2,4]triazolo[1,5-a][1,3,5]triazin-5-yl)piperidin-2-yl)(4-(2,2,3,3,3-pentafluoropropyl)piperazin-1-yl)methanone], 9 nM.
In the case of `CC(C)[C@H](Nc1nc(N)n2nc(-c3ccco3)nc2n1)C(=O)N1CCN(Cc2ccccc2)CC1` [Example 58, (S)-2-((7-amino-2-(furan-2-yl)-[1,2,4]triazolo[1,5-a][1,3,5]triazin-5-yl)amino)-1-(4-benzylpiperazin-1-yl)-3-methylbutan-1-one] it was 15 nM; in that of `Nc1nc(N2CC[C@H]2C(=O)N2CCN(CC(F)(F)C(F)(F)C(F)(F)F)CC2)nc2nc(-c3ccco3)nn12` [Example 257, (S)-(1-(7-amino-2-(furan-2-yl)-[1,2,4]triazolo[1,5-a][1,3,5]triazin-5-yl)azetidin-2-yl)(4-(2,2,3,3,4,4,4-heptafluorobutyl)piperazin-1-yl)methanone], 0.8 nM.
In turn, `C[C@H](Nc1nc(N)n2nc(-c3ccco3)nc2n1)C(=O)N1CCN(Cc2ccc(F)cc2)CC1` [Example 23, (S)-2-((7-amino-2-(furan-2-yl)-[1,2,4]triazolo[1,5-a][1,3,5]triazin-5-yl)amino)-1-(4-(4-fluorobenzyl)piperazin-1-yl)propan-1-one] yielded an IC50 of 61 nM.
`Nc1nc(N2CCC[C@H]2C(=O)N2CCN(C3CCC(F)(F)CC3)CC2)nc2nc(-c3ccco3)nn12` [Example 56, (S)-(1-(7-amino-2-(furan-2-yl)-[1,2,4]triazolo[1,5-a][1,3,5]triazin-5-yl)pyrrolidin-2-yl)(4-(4,4-difluorocyclohexyl)piperazin-1-yl)methanone] gave an IC50 of 8 nM.

Source of the values: patent publication US20240217978A1 (CHONG KUN DANG PHARMACEUTICAL CORP., priority 2021, published 2024).
